Laboratory results taken from US20250154173A1 (Merck Sharp & Dohme LLC, priority 2023, published 2025).

target: T1, GST-RIPK1 (recombinant GST-RIPK1 kinase domain (residues 1-327)) (Homo sapiens, UniProt Q13546); experiment: RIPK1-ADP-Glo Enzymatic Assay; format: biochemical; details: ten-point titration, top compound concentration of 100000 nM; 25 nM GST-RIPK1, 300 μM ATP, 3 μM dephosphorylated-MBP; 30 min pre-incubation, 150 min reaction
T1 construct: recombinant GST-RIPK1 kinase domain (residues 1-327) enzyme produced from baculovirus-transfected Sf21 cells; host or cells: baculovirus-transfected Sf21 insect cells
T1 sequence (Q13546 1-327): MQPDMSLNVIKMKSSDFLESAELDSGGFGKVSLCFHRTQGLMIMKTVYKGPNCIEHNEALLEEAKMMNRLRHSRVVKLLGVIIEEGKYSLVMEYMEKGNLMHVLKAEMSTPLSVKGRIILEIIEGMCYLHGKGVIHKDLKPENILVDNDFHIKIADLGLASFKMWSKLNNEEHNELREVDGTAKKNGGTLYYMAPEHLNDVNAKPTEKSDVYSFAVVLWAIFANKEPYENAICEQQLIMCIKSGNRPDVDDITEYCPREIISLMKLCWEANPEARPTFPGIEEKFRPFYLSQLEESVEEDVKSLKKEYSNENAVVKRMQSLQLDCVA
Procedure: RIPK1-ADP-Glo Enzymatic Assay
The enzymatic activity of RIPK1 is measured using an assay derived from ADP-Glo kit (TMPromega), which provides a luminescent-based ADP detection system. Specifically, the ADP generated by RIPK1 kinase is proportionally detected as luminescent signals in a homogenous fashion. In this context, the assessment of the inhibitory effect of small molecules (EC50) is measured by the effectiveness of the compounds to inhibit the ATP to ADP conversion by RIPK1.
In this assay, the potency (EC50) of each compound was determined from a ten-point (1:3 serial dilution; top compound concentration of 100000 nM) titration curve using the following outlined procedure. To each well of a white ProxiPlus 384 well-plate, 30 nL of compound (1% DMSO in final assay volume of 3 μL) was dispensed, followed by the addition of 2 μL of 1× assay buffer (25 mM Hepes 7.3, 20 mM MgCl2, 50 mM NaCl, 1 mM DTT, 0.005% Tween20, and 0.02% BSA) containing 37.5 nM of GST-RIPK1 (recombinant GST-RIPK1 kinase domain (residues 1-327) enzyme produced from baculovirus-transfected Sf21 cells: MW=62 kDa). Plates were placed in an ambient temperature humidified chamber for a 30 minutes pre-incubation with compound. Subsequently, each reaction was initiated by the addition of 1 μL 1× assay buffer containing 900 μM ATP and 3 μM dephosphorylated-MBP substrate. The final reaction in each well of 3 μL consists of 25 nM of GST-RIPK1, 300 μM ATP, and 3 μM dephosphorylated-MBP. Kinase reactions were allowed to proceed for 150 minutes prior to adding ADP-Glo reagents per Promega's outlined kit protocol. Dose-response curves were generated by plotting percent effect (% product conversion; Y-axis) vs. Log 10 compound concentrations (X-axis). EC50 values were calculated using a non-linear regression, four-parameters sigmoidal dose-response model.

| EC50 | SMILES |
| --- | --- |
| 34 nM | O=C1N2C(CC[C@H]2c2cnccn2)OC12CC(OCc1cccc(Cn3ccnn3)c1)C2 (stereo partly drawn) [Example 18.26, (5′S)-5′-(pyrazin-2-yl)-3-({3-[(1H-1,2,3-triazol-1-yl)methyl]phenyl}methoxy) tetrahydro-3′H-spiro[cyclobutane-1,2′-pyrrolo[2,1-b][1,3]oxazol]-3′-one] |
| 664 nM | Cc1cccnc1CO[C@H]1C[C@]2(C1)O[C@@H]1CC[C@@H](c3cnccn3)N1C2=O [Example 20.1, (5′S,7a′R)-3-((3-methylpyridin-2-yl)methoxy)-5′-(pyrazin-2-yl)tetrahydro-3′H-spiro[cyclobutane-1,2′-pyrrolo[2,1-b]oxazol]-3′-one] |
| 37 nM | Cc1nnc(-c2ccc(COC3CC4(C3)O[C@@H]3CC[C@@H](c5cnccn5)N3C4=O)cc2)o1 (stereo partly drawn) [Example 22.9, (5′S,7a′R)-3-{[4-(5-methyl-1,3,4-oxadiazol-2-yl)phenyl]methoxy}-5′-(pyrazin-2-yl)tetrahydro-3′H-spiro[cyclobutane-1,2′-pyrrolo[2,1-b][1,3]oxazol]-3′-one] |
| 236 nM | N#CC1(c2ccc(COC3CC4(C3)O[C@@H]3CC[C@@H](c5cnccn5)N3C4=O)cc2)CC1 (stereo partly drawn) [Example 20.8, 1-[4-({[(5′S,7a′R)-3′-oxo-5′-(pyrazin-2-yl)tetrahydro-3′H-spiro[cyclobutane-1,2′-pyrrolo[2,1-b][1,3]oxazol]-3-yl]oxy}methyl)phenyl]cyclopropane-1-carbonitrile] |
| 583 nM | O=C1N2C(CC[C@H]2c2cnccn2)OC12CC(OCc1cc(-n3ccnc3)ccn1)C2 (some centres unmarked) [Example 18.87] |
| 18 nM | NC(=O)c1ccnc(O[C@H]2C[C@@]3(C2)O[C@@H]2CC[C@@H](c4cc(F)cc(F)c4)N2C3=O)c1 [Example 10.2, 2-(((1r,3R,5′S,7a′R)-5′-(3,5-difluorophenyl)-3′-oxotetrahydro-3′H-spiro[cyclobutane-1,2′-pyrrolo[2,1-b]oxazol]-3-yl)oxy)isonicotinamide] |
| 25 nM | N#Cc1cccc(COC2CC3(C2)O[C@@H]2CC[C@@H](c4cnccn4)N2C3=O)c1 (stereo partly drawn) [Example 18.109, 3-((((5′S,7a′R)-3′-oxo-5′-(pyrazin-2-yl)tetrahydro-3′H-spiro[cyclobutane-1,2′-pyrrolo[2,1-b]oxazol]-3-yl)oxy)methyl)benzonitrile] |
| 155 nM | C[C@@H](OC1CC2(C1)O[C@@H]1CC[C@@H](c3cc(F)cc(F)c3)N1C2=O)c1ccc(F)cn1 (single isomer, unassigned) [Example 12.2, (1R,3R,5′S,7a′R)-5′-(3,5-difluorophenyl)-3-((S or R)-1-(5-fluoropyridin-2-yl)ethoxy)tetrahydro-3′H-spiro[cyclobutene-1,2′-pyrrolo[2,1-b]oxazol]-3′-one] |
| 16 nM | N#Cc1ccc(COC2CC3(C2)OC2CC[C@@H](c4cnccn4)N2C3=O)c2cccnc12 (stereo partly drawn) [Example 18.14, 5-({[(5′S)-3′-oxo-5′-(pyrazin-2-yl)tetrahydro-3′H-spiro[cyclobutane-1,2′-pyrrolo[2,1-b][1,3]oxazol]-3-yl]oxy}methyl)quinoline-8-carbonitrile] |
| 569 nM | O=C1N2C(CC[C@H]2c2cnccn2)OC12CC(OCc1ccc(OC3CCOCC3)nc1)C2 (stereo partly drawn) [Example 18.106, (5′S)-3-({6-[(oxan-4-yl)oxy]pyridin-3-yl}methoxy)-5′-(pyrazin-2-yl)tetrahydro-3′H-spiro[cyclobutane-1,2′-pyrrolo[2,1-b][1,3]oxazol]-3′-one] |
| 12 nM | O=C1N2[C@@H](CC[C@H]2c2cnccn2)O[C@]12C[C@@H](OCc1ccc3oncc3c1)C2 [Example 18.59, (5′S)-3-[(1,2-benzoxazol-5-yl)methoxy]-5′-(pyrazin-2-yl)tetrahydro-3′H-spiro[cyclobutane-1,2′-pyrrolo[2,1-b][1,3]oxazol]-3′-one] |
| 12 nM | N#CCc1cccc(COC2CC3(C2)OC2CC[C@@H](c4cnccn4)N2C3=O)c1 (stereo partly drawn) [Example 18.10, [3-({[(5′S)-3′-oxo-5′-(pyrazin-2-yl)tetrahydro-3′H-spiro[cyclobutane-1,2′-pyrrolo[2,1-b][1,3]oxazol]-3-yl]oxy}methyl)phenyl]acetonitrile] |
| 100 nM | O=C1N2C(CC[C@H]2c2cnccn2)OC12CC(OCc1cccc(CCn3cnnc3)c1)C2 (stereo partly drawn) [Example 18.9, (5′S)-5′-(pyrazin-2-yl)-3-({3-[2-(4H-1,2,4-triazol-4-yl)ethyl]phenyl}methoxy)tetrahydro-3′H-spiro[cyclobutane-1,2′-pyrrolo[2,1-b][1,3]oxazol]-3′-one] |
| 225 nM | O=C1N2C(CC[C@H]2c2cnccn2)OC12CC(OCc1cccc(N3CCCC3)n1)C2 (stereo partly drawn) [Example 18.96, (5′S)-5′-(pyrazin-2-yl)-3-{[6-(pyrrolidin-1-yl)pyridin-2-yl]methoxy}tetrahydro-3′H-spiro[cyclobutane-1,2′-pyrrolo[2,1-b][1,3]oxazol]-3′-one] |
| 109 nM | O=C1N2C(CC[C@H]2c2cnccn2)OC12CC(OCc1ccc(OC3CCOCC3)nc1)C2 (stereo partly drawn) [Example 18.57, (5′S)-3-({6-[(oxan-4-yl)oxy]pyridin-3-yl}methoxy)-5′-(pyrazin-2-yl)tetrahydro-3′H-spiro[cyclobutane-1,2′-pyrrolo[2,1-b][1,3]oxazol]-3′-one] |

Further lines, the compound ahead of its results:

| SMILES | EC50 |
| --- | --- |
| Cn1nccc1-c1cc(O[C@H]2C[C@@]3(C2)O[C@@H]2CC[C@@H](c4cc(F)cc(F)c4)N2C3=O)ncn1 [Example 9.55, (5′S,7a′R)-5′-(3,5-difluorophenyl)-3-((6-(1-methyl-1H-pyrazol-5-yl)pyrimidin-4-yl)oxy)tetrahydro-3′H-spiro[cyclobutane-1,2′-pyrrolo[2,1-b]oxazol]-3′-one] | 13 nM |
| N#Cc1ccnc(O[C@H]2C[C@@]3(C2)O[C@@H]2CC[C@@H](c4ccccc4)N2C3=O)n1 [Example 9.19, 2-{[(1r,3R,5′S,7a′R)-3′-oxo-5′-phenyltetrahydro-3′H-spiro[cyclobutane-1,2′-pyrrolo[2,1-b][1,3]oxazol]-3-yl]oxy}pyrimidine-4-carbonitrile] | 64 nM |
| O=C1N2[C@@H](CC[C@H]2c2cnccn2)O[C@]12C[C@@H](Oc1ccc(F)cc1F)C2 [Example 7.2, (1s,3S,5′S,7a′R)-3-(2,4-difluorophenoxy)-5′-(pyrazin-2-yl)tetrahydro-3′H-spiro[cyclobutane-1,2′-pyrrolo[2,1-b]oxazol]-3′-one] | 18 nM |
| O=C1N2[C@@H](CC[C@H]2c2ccccc2)OC12CCC(OCc1ccccc1)CC2 (single isomer, unassigned) [Example 1.1, ((1r or s),4R,5′S,7a′R)-4-(benzyloxy)-5′-phenyltetrahydro-3′H-spiro[cyclohexane-1,2′-pyrrolo[2,1-b]oxazol]-3′-one] | 256 nM |
| O=C1N2[C@@H](CC[C@H]2c2cc(F)cc(F)c2)OC12CC(Oc1cc(-n3cccn3)ncn1)C2 (stereo partly drawn) [Example 9.8, (5′S,7a′R)-5′-(3,5-difluorophenyl)-3-{[6-(1H-pyrazol-1-yl)pyrimidin-4-yl]oxy}tetrahydro-3′H-spiro[cyclobutane-1,2′-pyrrolo[2,1-b][1,3]oxazol]-3′-one] | 24 nM |
| O=C1N2[C@@H](CC[C@H]2c2ccccc2)OC12CCC(OCc1ccccc1)CC2 (single isomer, unassigned) [Example 1.2, ((1s or r),4R,5′S,7a′R)-4-(benzyloxy)-5′-phenyltetrahydro-3′H-spiro[cyclohexane-1,2′-pyrrolo[2,1-b]oxazol]-3′-one] | 138 nM |
| O=C1N2[C@@H](CC[C@H]2c2cc(F)cc(F)c2)O[C@]12C[C@H](Oc1nccc3ncnn13)C2 [Example 9.23, (1r,3R,5′S,7a′R)-5′-(3,5-difluorophenyl)-3-[([1,2,4]triazolo[1,5-c]pyrimidin-5-yl)oxy]tetrahydro-3′H-spiro[cyclobutane-1,2′-pyrrolo[2,1-b][1,3]oxazol]-3′-one] | 55 nM |
| O=C1N2[C@@H](CC[C@H]2c2cncc(F)c2)OC12CCC(OCc1ccccc1)CC2 (single isomer, unassigned) [Example 2.1, ((1r or s),4R,5′S,7a′R)-4-(benzyloxy)-5′-(5-fluoropyridin-3-yl)tetrahydro-3′H-spiro[cyclohexane-1,2′-pyrrolo[2,1-b]oxazol]-3′-one] | 1130 nM |
